≈ marks a conversion by molar mass, not a printed value. Where “and” joins values, the source holds several entries; their conditions need not be identical. Equal values may be shown once.
Columns and labels:
Assay in all cases: ≥ marks a high value that may be exact or a test limit, other limits are often not marked, values filed in µg/mL are converted to µM
[1] = tested on: Escherichia coli ATCC 25922
[2] = tested on: Candida albicans ATCC 2002
[3] = tested on: Pseudomonas aeruginosa CMCCB 10104
[4] = tested on: Staphylococcus aureus ATCC 25923
[5] = tested on: Salmonella typhimurium KCTC 1926
[6] = tested on: Bacillus subtilis KCTC 3068
[7] = tested on: Staphylococcus epidermidis KCTC 1917
[8] = tested on: Staphylococcus aureus KCTC 1621
[9] = tested on: Pseudomonas aeruginosa KCTC 1637
[10] = tested on: Escherichia coli KCTC 1682
[11] = tested on: Pseudomonas aeruginosa PAO1
[12] = tested on: Staphylococcus aureus USA 300
[13] = tested on: Klebsiella pneumoniae ATCC 13883
[14] = tested on: Salmonella enterica subsp. enterica serovar Typhimurium ATCC 14028
[15] = tested on: Acinetobacter baumannii ATCC 19606

## CC[C@H](C)[C@H](N)C(=O)N[C@@H](CC(C)C)C(=O)N1CCC[C@H]1C(=O)N[C@@H](Cc1ccccc1)C(=O)N[C@H](C(=O)N[C@@H](C)C(=O)NCC(=O)N[C@H](C(=O)N[C@@H](C)C(=O)N[C@@H](C)C(=O)N[C@@H](CCC(=O)O)C(=O)N[C@@H](CCSC)C(=O)N[C@@H](CCSC)C(=O)N[C@@H](CCC(N)=O)C(=O)N[C@@H](Cc1cnc[nH]1)C(=O)N[C@H](C(=O)N[C@@H](Cc1ccc(O)cc1)C(=O)N[C@H]1CSSC[C@@H](C(=O)O)NC(=O)[C@H](CCCCN)NC(=O)[C@H](CCCCN)NC(=O)[C@H](CO)NC(=O)[C@H](C)NC(=O)[C@H](C)NC1=O)C(C)C)C(C)C)C(C)C [ILPFVAGVAAEMMQHVYCAASKKC]
[1]
  MIC: 2.26 µM (≈ 5.8 µg/mL)
[2]
  MIC: 2.26 µM (≈ 5.8 µg/mL)
[3]
  MIC: 4.52 µM (≈ 11.6 µg/mL)
[4]
  MIC: 4.52 µM (≈ 11.6 µg/mL)

## CC(C)C[C@H](NC(=O)[C@H](Cc1ccccc1)NC(=O)[C@H](CCCN=C(N)N)NC(=O)[C@H](CCCCN)NC(=O)[C@H](Cc1c[nH]c2ccccc12)NC(=O)[C@H](CCCN=C(N)N)NC(=O)[C@H](CCC(N)=O)NC(=O)[C@@H](NC(=O)[C@H](Cc1c[nH]c2ccccc12)NC(=O)[C@H](CCCN=C(N)N)NC(=O)[C@H](CCCCN)NC(=O)[C@@H](N)Cc1ccccc1)C(C)C)C(=O)N[C@@H](CCCN=C(N)N)C(N)=O [FKRWVQRWKRFLR]
[5]
  MIC: 2 µM (≈ 3.81 µg/mL)
[6]
  MIC: 2 µM (≈ 3.81 µg/mL)
[7]
  MIC: 4 µM (≈ 7.62 µg/mL)
[8]
  MIC: 2 µM (≈ 3.81 µg/mL)
[9]
  MIC: 16 µM (≈ 30.5 µg/mL)
[10]
  MIC: 4 µM (≈ 7.62 µg/mL)

## CC[C@H](C)[C@H](NC(=O)[C@H](CC(C)C)NC(=O)[C@H](CC(C)C)NC(=O)[C@H](CC(=O)O)NC(=O)[C@H](CCCCN)NC(=O)[C@@H](NC(=O)[C@@H](NC(=O)CNC(=O)[C@H](CC(C)C)NC(=O)[C@@H](NC(=O)[C@@H](N)CO)C(C)C)[C@@H](C)O)C(C)C)C(=O)NCC(=O)N[C@@H](C)C(=O)NCC(=O)N[C@@H](CCCCN)C(=O)N[C@@H](CO)C(=O)N[C@@H](C)C(=O)N[C@@H](C)C(=O)N[C@@H](CCC(N)=O)C(=O)N[C@@H](CO)C(=O)N[C@H](C(=O)N[C@@H](CC(C)C)C(=O)N[C@H](C(=O)N[C@@H](C)C(=O)N[C@@H](CC(N)=O)C(=O)N[C@@H](CO)C(=O)N[C@H]1CSSC[C@@H](C(=O)O)NC(=O)[C@H](CO)NC(=O)[C@H](CC(N)=O)NC(=O)[C@H](CO)NC(=O)[C@H](CC(C)C)NC(=O)[C@H](CCCCN)NC1=O)[C@@H](C)O)C(C)C [SVLGTVKDLLIGAGKSAAQSVLTANSCKLSNSC]
[1]
  MIC: 3.65 µM (≈ 11.8 µg/mL)
[2]
  MIC: 3.65 µM (≈ 11.8 µg/mL)
[3]
  MIC: 3.65 µM (≈ 11.8 µg/mL)
[4]
  MIC: 1.82 µM (≈ 5.9 µg/mL)

## CC[C@H](C)[C@H](NC(=O)[C@H](CCCCN)NC(=O)[C@H](CCCCN)NC(=O)CNC(=O)[C@H](CCSC)NC(=O)[C@H](CO)NC(=O)[C@@H](NC(=O)[C@@H](NC(=O)[C@H](CC(N)=O)NC(=O)CNC(=O)[C@H](CC(C)C)NC(=O)[C@H](Cc1ccccc1)NC(=O)[C@@H](N)C(C)C)[C@@H](C)CC)C(C)C)C(=O)O [VFLGNIVSMGKKI]
[1]
  MIC: > 142 µM
[2]
  MIC: ≥ 142 µM
[3]
  MIC: ≥ 142 µM
[4]
  MIC: > 142 µM

## CC(C)C[C@H](NC(=O)[C@H](CC(C)C)NC(=O)[C@H](CCCCN)NC(=O)[C@H](CCCCN)NC(=O)[C@H](Cc1c[nH]c2ccccc12)NC(=O)[C@H](CC(C)C)NC(=O)[C@H](CCCCN)NC(=O)[C@H](CCCCN)NC(=O)[C@H](CC(C)C)NC(=O)[C@@H](N)CCCCN)C(=O)N[C@@H](CCCCN)C(N)=O [KLKKLWKKLLK]
[6]
  MIC: 8.77 µM and 17.5 µM

## CC(C)C[C@H](NC(=O)[C@H](CC(C)C)NC(=O)[C@H](CCCCN)NC(=O)CNC(=O)[C@H](CC(C)C)NC(=O)[C@H](C)NC(=O)[C@H](CO)NC(=O)[C@H](CC(C)C)NC(=O)[C@H](CC(C)C)NC(=O)[C@H](CO)NC(=O)[C@H](CC(C)C)NC(=O)[C@H](CC(C)C)NC(=O)CN)C(N)=O [GLLSLLSALGKLL]
[11]
  MIC: > 25 µM
[1]
  MIC: > 25 µM
[12]
  MIC: 1.56 µM (≈ 2.02 µg/mL)
[13]
  MIC: 25 µM (≈ 32.4 µg/mL)

## CC[C@H](C)[C@H](NC(=O)[C@H](CC(C)C)NC(=O)[C@H](CC(C)C)NC(=O)[C@H](CC(N)=O)NC(=O)[C@H](CCCCN)NC(=O)[C@@H](NC(=O)[C@@H](NC(=O)[C@H](C)NC(=O)[C@H](CC(C)C)NC(=O)[C@@H](NC(=O)CN)C(C)C)[C@@H](C)O)C(C)C)C(=O)NCC(=O)N[C@H](C(=O)NCC(=O)N[C@@H](CC(=O)O)C(=O)NCC(=O)N[C@@H](C)C(=O)N[C@@H](C)C(=O)N[C@@H](CCC(N)=O)C(=O)N[C@@H](CO)C(=O)N[C@H](C(=O)N[C@@H](CC(C)C)C(=O)N[C@@H](CCCCN)C(=O)N[C@H](C(=O)N[C@@H](CC(C)C)C(=O)N[C@@H](CO)C(=O)N[C@H]1CSSC[C@@H](C(=O)O)NC(=O)[C@H](CC(=O)O)NC(=O)[C@H](CC(N)=O)NC(=O)[C@H](CO)NC(=O)[C@H](CC(C)C)NC(=O)[C@H](CCCCN)NC1=O)[C@@H](C)O)C(C)C)[C@@H](C)O [GVLATVKNLLIGTGDGAAQSVLKTLSCKLSNDC]
[1]
  MIC: 3.4 µM (≈ 11.2 µg/mL)
[2]
  MIC: 3.4 µM (≈ 11.2 µg/mL)
[3]
  MIC: 13.6 µM (≈ 44.8 µg/mL)
[4]
  MIC: 6.81 µM (≈ 22.4 µg/mL)

## CC[C@H](C)[C@@H]1NC(=O)[C@H](CCCCN)NC(=O)[C@@H](NC(=O)[C@H](CCCCN)NC(=O)[C@H](CC(C)C)NC(=O)[C@H](CC(N)=O)NC(=O)[C@H](CC(=O)O)NC(=O)[C@H](CC(C)C)NC(=O)[C@H](CC(C)C)NC(=O)[C@@H](NC(=O)[C@@H](NC(=O)[C@H](CC(=O)O)NC(=O)[C@H](CCSC)NC(=O)[C@H](CC(N)=O)NC(=O)[C@H](CCCCN)NC(=O)[C@H](C)NC(=O)[C@@H](NC(=O)[C@H](CC(N)=O)NC(=O)[C@H](CCCCN)NC(=O)[C@H](C)NC(=O)[C@@H](NC(=O)[C@H](C)NC(=O)[C@H](CCSC)NC(=O)[C@H](Cc2ccccc2)NC(=O)CN)[C@@H](C)O)C(C)C)C(C)C)[C@@H](C)O)CSSC[C@@H](C(=O)O)NC(=O)[C@H](C)NC(=O)[C@H](CCCCN)NC(=O)[C@H]([C@@H](C)O)NC1=O [GFMATAKNVAKNMDVTLLDNLKCKITKAC]
[1]
  MIC: 2.61 µM (≈ 8.2 µg/mL)
[2]
  MIC: 1.3 µM (≈ 4.1 µg/mL)
[3]
  MIC: 1.3 µM (≈ 4.1 µg/mL)
[4]
  MIC: 1.3 µM (≈ 4.1 µg/mL)

## CC[C@H](C)[C@H](NC(=O)[C@H](CC(C)C)NC(=O)CN)C(=O)N[C@@H](CC(=O)O)C(=O)N[C@H](C(=O)N[C@H](C(=O)N[C@@H](CCCCN)C(=O)N[C@@H](CC(N)=O)C(=O)N[C@@H](CCSC)C(=O)N[C@@H](C)C(=O)N[C@@H](CC(C)C)C(=O)N[C@@H](CC(N)=O)C(=O)N[C@@H](C)C(=O)N[C@@H](C)C(=O)N[C@@H](CCCCN)C(=O)N[C@@H](CO)C(=O)N[C@@H](C)C(=O)NCC(=O)N[C@H](C(=O)N[C@@H](CO)C(=O)N[C@H](C(=O)N[C@@H](CC(C)C)C(=O)N[C@@H](CC(N)=O)C(=O)N[C@H](C(=O)N[C@@H](CC(C)C)C(=O)N[C@@H](CO)C(=O)N[C@H]1CSSC[C@@H](C(=O)O)NC(=O)[C@H]([C@@H](C)O)NC(=O)[C@H](CCCCN)NC(=O)[C@H](CO)NC(=O)[C@H](CC(C)C)NC(=O)[C@H](CCCCN)NC1=O)[C@@H](C)O)C(C)C)C(C)C)[C@@H](C)CC)[C@@H](C)O [GLIDTIKNMALNAAKSAGVSVLNTLSCKLSKTC]
[1]
  MIC: 6.12 µM (≈ 20.6 µg/mL)
[2]
  MIC: 3.06 µM (≈ 10.3 µg/mL)
[3]
  MIC: 12.2 µM (≈ 41.2 µg/mL)
[4]
  MIC: 6.12 µM (≈ 20.6 µg/mL)

## CC(C)C[C@H](NC(=O)[C@H](CCCN=C(N)N)NC(=O)[C@H](CCCN=C(N)N)NC(=O)[C@H](C)NC(=O)[C@H](Cc1c[nH]c2ccccc12)NC(=O)CNC(=O)[C@H](CCCN=C(N)N)NC(=O)[C@@H](N)CCCN=C(N)N)C(=O)N[C@@H](C)C(=O)N[C@@H](C)C(=O)N[C@@H](C)C(=O)N[C@@H](Cc1ccc(O)cc1)C(=O)NCC(=O)N[C@@H](CCCN=C(N)N)C(=O)N[C@@H](CCCN=C(N)N)C(N)=O [RRGWARRLAAAYGRR]
[1]
  MIC: 18.1 µM and 30 µM
[13]
  MIC: 30 µM (≈ 54.5 µg/mL)
[14]
  MIC: > 30 µM
[15]
  MIC: 25.4 µM and 30 µM
[4]
  MIC: > 30 µM

## CC[C@H](C)[C@H](NC(=O)[C@H](CC(C)C)NC(=O)[C@H](CC(C)C)NC(=O)[C@H](CC(=O)O)NC(=O)[C@H](CCCCN)NC(=O)[C@@H](NC(=O)[C@@H](NC(=O)CNC(=O)[C@H](CC(C)C)NC(=O)[C@@H](NC(=O)CN)C(C)C)[C@@H](C)O)C(C)C)C(=O)NCC(=O)N[C@@H](C)C(=O)NCC(=O)N[C@@H](CCCCN)C(=O)N[C@@H](CO)C(=O)N[C@@H](C)C(=O)N[C@@H](C)C(=O)N[C@@H](CCC(N)=O)C(=O)N[C@@H](CO)C(=O)N[C@H](C(=O)N[C@@H](CC(C)C)C(=O)N[C@@H](CCCCN)C(=O)N[C@H](C(=O)N[C@@H](CC(C)C)C(=O)N[C@@H](CO)C(=O)N[C@H]1CSSC[C@@H](C(=O)O)NC(=O)[C@H](CC(=O)O)NC(=O)[C@H](CC(N)=O)NC(=O)[C@H](CO)NC(=O)[C@H]([C@@H](C)CC)NC(=O)[C@H](CCCCN)NC1=O)[C@@H](C)O)[C@@H](C)O [GVLGTVKDLLIGAGKSAAQSTLKTLSCKISNDC]
[1]
  MIC: 1.76 µM (≈ 5.8 µg/mL)
[2]
  MIC: 1.76 µM (≈ 5.8 µg/mL)
[3]
  MIC: 7.05 µM (≈ 23.2 µg/mL)
[4]
  MIC: 3.52 µM (≈ 11.6 µg/mL)

Reference: DBAASP
